Consider one compound from US9493466B2, “Treatment of cancer with TOR kinase inhibitors” (Signal Pharmaceuticals, LLC, priority 2011, dated 2016).

Assay [1] relates to SU-DHL-10. The experiment in a line: Growth inhibition assay for NHL lines. The settings on record: SU-DHL-10, NHL DLBCL, 96 hours, n ≧ 3. The assay is classed as cell-based. As to the method: (§1) Growth Inhibition Assay for HCC and NHL Lines. The seeding density for each cell line was optimized to ensure assay linearity in 384-well plates.
(§2) Compound 1 was dissolved in dimethyl sulfoxide (DMSO) to prepare a 10 mM stock solution. A serial titration was performed to produce a working concentration range of […] to 10 mM. Aliquots to produce final concentrations of 1.5 nM to 10 μM were spotted via an acoustic dispenser (EDC ATS-100) into an empty 384-well plate. Compound 1 was spotted in a 10-point serial dilution fashion (3-fold dilution) in duplicate within the plate. The DMSO concentration was kept constant for a final assay concentration of 0.1% DMSO. Plates were replicated for use with different cell lines and testing periods. After compound plate replication, all plates were sealed (Agilent ThermoLoc) and stored at −20° C. for up to 1 month. […] When ready for testing, plates were removed from the freezer, thawed, and unsealed just prior to the addition of the test cells. Prior to testing, cells were grown and expanded in culture flasks to provide sufficient amounts of starting material. Cells were then diluted to the appropriate densities and added directly to the compound-spotted 384-well plates. Cells were allowed to grow for 96 hours at 37° C./5% CO2. At the time when compound was added (t0), initial cell number was assessed via a viability assay (Cell Titer-Glo) by quantifying the level of luminescence generated by ATP present in viable cells. After 96 hours, cell viability of compound-treated cells was assessed via Cell Titer-Glo and luminescence measurement. Cell lines were assayed for growth inhibition by Compound 1 in at least 3 independent tests. A control cell line (the lung tumor cell line, A549) was included in each of the assays. The compound response against this control cell line was monitored closely to enable comparison of the data generated through the assay period. All data were normalized and presented as a percentage of the DMSO-treated cells. Results were then expressed as a GI50 value. The GI50 value corrects for the cell count at time zero. In addition, the IC50 value of Compound 1 for each cell line was calculated.

The test system of assay [2] is JVM-2. Description: Growth inhibition assay for NHL lines. The settings on record: JVM-2, NHL MCL, 96 hours, n ≧ 3. It is filed as cell-based. The procedure: as §1, §2
The subject of assay [3] is WSU-NHL. The experiment in a line: Growth inhibition assay for NHL lines. It is filed as cell-based. The settings on record: NHL FL, 96 hours, n ≧ 3. The procedure:
as §1, §2

Assay [4] deals with HT. The experiment in a line: Growth inhibition assay for NHL lines. It is filed as cell-based. The note with it: NHL DLBCL, 96 hours, n ≧ 3. The procedure: as §1, §2
The test system of assay [5] is SU-DHL-8. The experiment in a line: Growth inhibition assay for NHL lines. The assay is classed as cell-based. The settings on record: SU-DHL-8, NHL DLBCL, 96 hours, n ≧ 3. As to the method: as §1, §2
Assay [6] concerns THP-1. The experiment in a line: Growth inhibition assay for NHL lines. It is filed as cell-based. The note with it: THP-1, Leukemia M-AML, 96 hours, n ≧ 3. As to the method: as §1, §2
The test system of assay [7] is SU-DHL-5. Description: Growth inhibition assay for NHL lines. It is filed as cell-based. The settings on record: SU-DHL-5, NHL DLBCL, 96 hours, n ≧ 3. The procedure:
as §1, §2

The subject of assay [8] is SU-DHL-4. Description: Growth inhibition assay for NHL lines. The assay is classed as cell-based. The note with it: SU-DHL-4, NHL DLBCL, 96 hours, n ≧ 3. The procedure:
as §1, §2

The test system of assay [9] is HL-60. The experiment in a line: Growth inhibition assay for NHL lines. The assay is classed as cell-based. The note with it: HL-60, Leukemia M-AML, 96 hours, n ≧ 3. The procedure: as §1, §2
Assay [10] has as its system DB. Description: Growth inhibition assay for NHL lines. It is filed as cell-based. The settings on record: NHL DLBCL, 96 hours, n ≧ 3. As to the method: as §1, §2
Assay [11] deals with U87MG tumors. Description: Ki67 immunohistochemistry in U87MG tumors. The assay is classed as in vivo, mice. The settings on record: 5 mg/kg BID oral for 4 days; p<0.001. As to the method:
Mechanism of action studies. To determine the mechanism of action of Compound 1, mice bearing U87MG tumors of approximately 500 mm^3 were dosed orally with vehicle or Compound 1 at 5 mg/kg BID for 4 days. The positive control, rapamycin, was dosed at 4 mg/kg Q3D for 4 days. Two hours after the 7th dose of Compound 1 on day 4, animals were euthanized and tumors were dissected out and snap frozen in liquid nitrogen. In the rapamycin-treated group tumors were collected at 2 hour after the 2nd dose on day 4. The tumors were processed for immunohistochemistry (IHC) or TUNEL.
Immunohistochemistry. Five to ten micron (5-10 μm) thick cryostat sections were used for IHC. The expression of the cell proliferation marker Ki67 was evaluated by IHC using anti-Ki67 antibody. […] The sections were visualized with a Nikon E800 microscope equipped with fluorescence detection equipment and a digital camera attached to a computer.
Quantitation of Immunohistochemistry. The tissues sections processed for apoptosis or immunostained for proliferating cells (Ki67) or blood vessels were quantitated using Metamorph software. Using 20× objective, 5 different fields from each section, 2-4 sections from each tumor, and 3-4 tumors from each treatment group or control were used for quantitation. The area of interest was expressed as the percent threshold area of the total area. […]

As to `CO[C@H]1CC[C@H](N2C(=O)CNc3ncc(-c4ccc(C(C)(C)O)nc4)nc32)CC1` [Compound 1, 7-(6-(2-hydroxypropan-2-yl)pyridin-3-yl)-1-((1r,4r)-4-methoxycyclohexyl)-3,4-dihydropyrazino-[2,3-b]pyrazin-2(1H)-one], the GI50 in assay [1] stood at 200 ± 20 nM; in [2], 260 ± 50 nM; in assay [3], 50 nM; in [4], 110 ± 40 nM; in assay [5], 80 ± 40 nM; in assay [6] it was 230 ± 110 nM. Also, the GI50 turned out to be 230 ± 130 nM in [7], 110 ± 40 nM in assay [8], 240 ± 60 nM in assay [9] and 150 ± 100 nM in [10]. Besides, the IC50 is 200 ± 30 nM in assay [1]; 440 ± 180 nM in assay [2]; 70 nM in [3]; 170 ± 50 nM in assay [4]; 100 ± 40 nM in assay [5]; 570 ± 160 nM in assay [6]. In addition, the IC50 in [7] came to 260 ± 140 nM; in assay [8], 120 ± 50 nM; in assay [9] it was 380 ± 130 nM; in assay [10] it was 170 ± 90 nM. Also, the “reduction in the number of proliferating cells (Ki67) compared with vehicle” value in assay [11] was 59%.

The GI50 is the concentration that inhibits growth by half. High values mean less potent growth inhibition, low ones more potent growth inhibition. As usually defined, the IC50 is the midpoint of a concentration-inhibition curve.
